Each structure is given as a SMILES string. Active and inactive are the calls of the source. Bounds are passed on as bounds.

The nature of data set [1]: A cytotoxicity screen of small molecule inhibitors of the PhoP region in Salmonella typhi identified in the primary screen. [Related pubchem assays: 1850, 1864, 1985 ]. In kind it is functional.
Data set [2] deals with T1, Neuropeptide Y receptor type 2 (Homo sapiens, UniProt P49146).
T1 sequence (P49146 whole entry): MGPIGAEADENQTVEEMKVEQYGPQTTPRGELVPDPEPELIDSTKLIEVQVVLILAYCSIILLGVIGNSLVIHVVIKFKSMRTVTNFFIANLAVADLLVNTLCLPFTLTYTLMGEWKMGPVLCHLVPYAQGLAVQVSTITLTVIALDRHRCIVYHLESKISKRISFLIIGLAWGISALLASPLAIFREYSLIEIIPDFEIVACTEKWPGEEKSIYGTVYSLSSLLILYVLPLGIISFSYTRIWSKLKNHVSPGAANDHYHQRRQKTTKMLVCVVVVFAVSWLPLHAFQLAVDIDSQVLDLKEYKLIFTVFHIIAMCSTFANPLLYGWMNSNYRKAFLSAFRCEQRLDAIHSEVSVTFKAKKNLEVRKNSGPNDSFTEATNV
In words: Fluorescence-based cell-based high-throughput dose response assay for agonists of NPY-Y2. [Related pubchem assays: 1703 (Screening assay (CNGC inhibitors).), 1359 (Screening assay (NPY-Y2 potentiators or agonists).), 1304 (Screening assay (NPY-Y1 potentiators or agonists).), 1710 (Screening assay (NPY-Y2 agonists).), 1791 (Summary AID.)]. Type of data set: functional.

In data set [3] the target is T2, Fatty acid synthase (Homo sapiens, UniProt P49327). As to the kind of experiment: inhibition of human FAS-TE enzyme activity – biochemical, kinetic fluorescence intensity, dose response (AID 624326).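 Also: rate of fluorescence rise from hydrolysis of a fluorogenic O-methyl fluorescein ester substrate.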 Type of data set: functional.
T2 sequence (P49327 whole entry): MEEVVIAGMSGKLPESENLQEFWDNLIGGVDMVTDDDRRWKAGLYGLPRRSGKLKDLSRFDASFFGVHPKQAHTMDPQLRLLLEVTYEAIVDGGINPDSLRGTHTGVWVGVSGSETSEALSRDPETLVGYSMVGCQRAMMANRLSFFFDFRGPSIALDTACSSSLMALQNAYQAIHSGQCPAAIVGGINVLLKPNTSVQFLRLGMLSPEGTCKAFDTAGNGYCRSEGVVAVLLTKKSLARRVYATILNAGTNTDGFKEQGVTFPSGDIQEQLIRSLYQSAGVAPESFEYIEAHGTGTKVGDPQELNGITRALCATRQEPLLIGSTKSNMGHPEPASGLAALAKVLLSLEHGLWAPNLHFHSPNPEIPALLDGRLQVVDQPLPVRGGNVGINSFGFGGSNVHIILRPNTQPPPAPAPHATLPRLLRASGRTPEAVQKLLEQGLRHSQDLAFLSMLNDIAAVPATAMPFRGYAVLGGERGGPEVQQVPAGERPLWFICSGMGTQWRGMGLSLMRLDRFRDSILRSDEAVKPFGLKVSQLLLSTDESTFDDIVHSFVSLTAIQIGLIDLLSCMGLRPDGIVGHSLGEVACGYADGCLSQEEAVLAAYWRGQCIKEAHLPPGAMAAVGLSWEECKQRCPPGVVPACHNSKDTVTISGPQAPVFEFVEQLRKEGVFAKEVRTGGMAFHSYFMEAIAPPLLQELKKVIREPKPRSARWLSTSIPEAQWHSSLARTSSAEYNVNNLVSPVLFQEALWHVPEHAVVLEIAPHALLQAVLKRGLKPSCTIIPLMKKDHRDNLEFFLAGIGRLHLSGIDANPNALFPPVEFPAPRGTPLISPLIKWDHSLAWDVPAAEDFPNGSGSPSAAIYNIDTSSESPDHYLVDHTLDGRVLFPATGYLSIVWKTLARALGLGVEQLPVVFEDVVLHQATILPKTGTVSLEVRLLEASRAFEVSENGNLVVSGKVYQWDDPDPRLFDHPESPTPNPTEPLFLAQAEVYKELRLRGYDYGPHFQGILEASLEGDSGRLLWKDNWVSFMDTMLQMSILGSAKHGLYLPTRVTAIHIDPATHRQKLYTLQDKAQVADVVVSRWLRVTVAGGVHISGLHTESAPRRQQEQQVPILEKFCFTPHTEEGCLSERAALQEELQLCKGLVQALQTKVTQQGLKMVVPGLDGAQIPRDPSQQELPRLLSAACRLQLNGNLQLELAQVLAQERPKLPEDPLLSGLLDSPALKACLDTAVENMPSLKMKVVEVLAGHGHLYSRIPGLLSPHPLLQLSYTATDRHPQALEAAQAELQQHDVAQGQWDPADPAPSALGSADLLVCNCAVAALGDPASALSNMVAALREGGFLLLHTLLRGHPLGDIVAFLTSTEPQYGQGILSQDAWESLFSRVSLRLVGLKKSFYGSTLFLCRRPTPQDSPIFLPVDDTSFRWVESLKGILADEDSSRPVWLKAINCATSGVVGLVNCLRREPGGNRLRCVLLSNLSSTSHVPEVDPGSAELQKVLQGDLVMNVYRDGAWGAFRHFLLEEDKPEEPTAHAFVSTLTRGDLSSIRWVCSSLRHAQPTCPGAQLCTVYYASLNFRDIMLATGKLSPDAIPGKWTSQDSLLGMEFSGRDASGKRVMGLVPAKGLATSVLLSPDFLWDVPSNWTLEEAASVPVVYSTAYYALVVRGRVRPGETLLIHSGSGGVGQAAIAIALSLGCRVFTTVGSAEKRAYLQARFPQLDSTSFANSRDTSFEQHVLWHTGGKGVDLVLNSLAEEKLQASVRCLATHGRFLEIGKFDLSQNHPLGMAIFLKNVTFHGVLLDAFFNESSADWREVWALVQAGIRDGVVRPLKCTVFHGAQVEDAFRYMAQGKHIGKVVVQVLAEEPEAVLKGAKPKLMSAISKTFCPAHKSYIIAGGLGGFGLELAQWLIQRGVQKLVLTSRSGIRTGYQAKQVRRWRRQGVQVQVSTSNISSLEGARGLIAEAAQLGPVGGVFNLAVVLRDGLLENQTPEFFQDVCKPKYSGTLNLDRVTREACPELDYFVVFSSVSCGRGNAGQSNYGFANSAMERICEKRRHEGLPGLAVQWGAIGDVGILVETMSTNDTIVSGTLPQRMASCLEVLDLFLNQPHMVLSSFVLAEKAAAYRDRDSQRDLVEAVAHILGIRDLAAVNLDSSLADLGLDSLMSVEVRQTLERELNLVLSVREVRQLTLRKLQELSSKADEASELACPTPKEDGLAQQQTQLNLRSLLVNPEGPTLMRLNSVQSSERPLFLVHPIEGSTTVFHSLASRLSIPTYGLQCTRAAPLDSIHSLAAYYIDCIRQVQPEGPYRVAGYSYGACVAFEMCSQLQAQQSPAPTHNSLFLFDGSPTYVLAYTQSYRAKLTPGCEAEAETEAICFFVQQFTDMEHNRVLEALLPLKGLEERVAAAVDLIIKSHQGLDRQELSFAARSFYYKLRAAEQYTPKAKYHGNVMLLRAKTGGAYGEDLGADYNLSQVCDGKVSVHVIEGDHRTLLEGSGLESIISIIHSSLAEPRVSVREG
For data set [4], the target named is T2, Fatty acid synthase. As to the kind of experiment: inhibition of human FAS-TE enzyme activity – biochemical, endpoint fluorescence intensity, uHTS hits, dose response (AID 624327).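 Also: fluorescence from hydrolysis of an O-methyl fluorescein acyl ester substrate by the enzyme.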 Type of data set: functional.
In the next data set the target is T3, Streptokinase A (Streptococcus pyogenes serotype M1, UniProt P10520).
T3 sequence (P10520 whole entry): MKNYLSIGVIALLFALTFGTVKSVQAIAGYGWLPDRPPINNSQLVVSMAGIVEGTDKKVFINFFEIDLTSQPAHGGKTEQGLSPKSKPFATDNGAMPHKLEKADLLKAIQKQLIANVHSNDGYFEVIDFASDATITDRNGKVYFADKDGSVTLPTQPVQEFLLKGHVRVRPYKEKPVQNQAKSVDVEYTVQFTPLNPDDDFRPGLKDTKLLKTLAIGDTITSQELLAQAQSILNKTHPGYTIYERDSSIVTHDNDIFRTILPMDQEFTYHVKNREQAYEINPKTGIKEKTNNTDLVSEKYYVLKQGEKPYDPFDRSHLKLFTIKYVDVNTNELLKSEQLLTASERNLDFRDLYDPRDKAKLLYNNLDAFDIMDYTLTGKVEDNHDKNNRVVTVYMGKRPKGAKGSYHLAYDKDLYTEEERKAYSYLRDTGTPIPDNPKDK
As to the kind of experiment: viability-normalized secreted streptokinase activity reduction – plasminogen activation absorbance, OD405, dose response (AID 1914).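 Also: secreted streptokinase activity via plasminogen activation per viability signal from cell pellet.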 In kind it is functional, Streptococcus pyogenes M1 GAS.

A further data set concerns the target Paired box protein Pax-8 (Homo sapiens, UniProt Q06710). In words: PAX8 transcriptional activity inhibition in RMG-I – RMG-I cells, luciferase, cherry-pick, dose response (AID 687027).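 Also: luciferase reporter driven by Pax8 target thyroperoxidase promoter measured by SteadyGlo luminescence.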 In kind it is functional, cell-based.
A further data set relates to Streptococcus. In words: GAS UMAA2166 growth inhibition – luminescence, BacTiterGlo, counter-screen for streptokinase expression inhibitor project, dose response (AID 1915).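 Also: potency for reduction of bacterial viability or growth.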 In kind it is functional, organism-based.
In a further data set the test system is HEK293. As to the kind of experiment: Fluorescence-based counterscreen for potentiators or agonists of NPY-Y2: cell-based high-throughput dose response assay to identify inhibitors of cyclic nucleotide gated ion channel (CNGC) activity. In this assay, the parental HEK293 cell line transfected with a cyclic-nucleotide gated ion channel (CNGC)-based cAMP sensor is used to measure inhibition of isoproterenol-induced CNGC activity by test compound. The following applies: Homo sapiens. Type of data set: functional. Background: The purpose of a counterscreen is to sort out artefacts and off-target activity.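 Also: stimulus is 1 µM isoproterenol at EC100 plus PDE inhibitor Ro 20-1724 at 25 µM.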

Data set [5] deals with Streptococcus sp. 'group A'. In words: Streptococcus pyogenes SK(-)GAS viability under kanamycin – luminescence, BacTiterGlo, confirmation, counter-screen for streptokinase expression inhibitor project, dose response (AID 1900). Type of data set: functional, organism-based.
The target in data set [6] is T4, Neuropeptide Y receptor type 1 (Homo sapiens, UniProt P25929).
T4 sequence (P25929 whole entry): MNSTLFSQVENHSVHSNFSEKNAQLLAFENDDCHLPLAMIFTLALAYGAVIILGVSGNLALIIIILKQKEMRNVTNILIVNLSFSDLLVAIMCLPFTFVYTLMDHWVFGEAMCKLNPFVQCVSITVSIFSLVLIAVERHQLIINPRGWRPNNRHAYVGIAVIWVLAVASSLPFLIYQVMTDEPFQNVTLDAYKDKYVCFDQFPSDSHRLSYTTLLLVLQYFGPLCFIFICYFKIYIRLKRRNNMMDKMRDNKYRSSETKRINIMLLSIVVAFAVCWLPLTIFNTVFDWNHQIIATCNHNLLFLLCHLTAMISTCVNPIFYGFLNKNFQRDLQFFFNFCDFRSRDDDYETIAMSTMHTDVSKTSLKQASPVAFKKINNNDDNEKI
As to the kind of experiment: Fluorescence-based counterscreen for agonists of NPY-Y2: cell-based high-throughput dose response assay for agonists of NPY-Y1. Type of data set: functional.

For another data set, the system named is Vero. As to the kind of experiment: viability of Vero cells under compound – cytotoxicity control for flavivirus capping enzyme inhibitors (AID 588742). Type of data set: functional. Conditions: Chlorocebus sabaeus.
Data set [7] in a line: antiviral protection against BTV-induced cell death – arbovirus, BSR cells, confirmation (AID 1250).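 Also: protection from viral cytopathic effect measured as cell viability by ATP luminescence.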 Type of data set: functional.
Data set [8] has as its target Mothers against decapentaplegic homolog 3 (Homo sapiens, UniProt P84022). As to the kind of experiment: blockers of Smad3 complex formation in lysate – cell lysate, secondary confirmation, chemiluminescent ELISA, HEK293 lysate, dose response (AID 1058). Type of data set: functional. (In an ELISA, binding on a coated surface is turned into a signal by an enzyme label.)

The target in data set [9] is T5, Eukaryotic translation initiation factor 2-alpha kinase 3 (Homo sapiens, UniProt Q9NZJ5). In words: Counterscreen assay for PERK inhibitors: Dose response cell-based high throughput screening assay to measure inhibition of PERK at 6 hours. [Related pubchem assays: 1522, 1416 ]. Type of data set: functional.
T5 sequence (Q9NZJ5 whole entry): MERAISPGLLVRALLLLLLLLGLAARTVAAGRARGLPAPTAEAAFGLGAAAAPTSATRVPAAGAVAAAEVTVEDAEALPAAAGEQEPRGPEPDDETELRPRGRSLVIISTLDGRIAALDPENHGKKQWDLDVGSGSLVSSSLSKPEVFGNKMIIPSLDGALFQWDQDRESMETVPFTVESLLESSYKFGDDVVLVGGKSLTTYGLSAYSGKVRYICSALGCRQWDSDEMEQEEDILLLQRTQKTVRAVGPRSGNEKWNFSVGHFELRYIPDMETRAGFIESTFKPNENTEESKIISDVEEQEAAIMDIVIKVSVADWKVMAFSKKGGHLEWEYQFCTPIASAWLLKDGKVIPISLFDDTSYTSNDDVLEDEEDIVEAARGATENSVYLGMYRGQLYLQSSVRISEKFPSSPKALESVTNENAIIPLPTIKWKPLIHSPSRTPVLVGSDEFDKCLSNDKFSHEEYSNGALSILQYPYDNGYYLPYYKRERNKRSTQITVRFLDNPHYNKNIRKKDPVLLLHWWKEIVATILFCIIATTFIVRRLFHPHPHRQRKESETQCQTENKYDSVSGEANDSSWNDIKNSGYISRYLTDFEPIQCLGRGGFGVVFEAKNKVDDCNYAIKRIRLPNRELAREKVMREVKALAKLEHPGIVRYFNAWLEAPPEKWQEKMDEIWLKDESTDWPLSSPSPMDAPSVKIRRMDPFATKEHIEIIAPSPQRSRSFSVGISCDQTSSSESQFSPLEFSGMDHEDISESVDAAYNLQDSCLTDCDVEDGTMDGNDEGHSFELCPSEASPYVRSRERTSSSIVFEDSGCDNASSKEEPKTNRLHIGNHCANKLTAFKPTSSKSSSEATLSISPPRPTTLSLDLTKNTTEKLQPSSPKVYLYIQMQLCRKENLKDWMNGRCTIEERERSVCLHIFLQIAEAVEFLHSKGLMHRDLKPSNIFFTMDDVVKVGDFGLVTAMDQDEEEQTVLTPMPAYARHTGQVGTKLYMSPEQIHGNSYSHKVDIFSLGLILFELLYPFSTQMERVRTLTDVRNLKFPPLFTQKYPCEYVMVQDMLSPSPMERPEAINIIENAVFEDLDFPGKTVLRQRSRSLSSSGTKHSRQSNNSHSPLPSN
Data set [10] has as its target T5, Eukaryotic translation initiation factor 2-alpha kinase 3. In words: Dose response cell-based high-throughput screening assay to measure PERK inhibition. [Related pubchem assays: 1416 ]. Type of data set: functional.
For another data set, the target named is Cytochrome P450 2C19 (Homo sapiens, UniProt P33261). As to the kind of experiment: Cytochrome panel assay with activity outcomes. Panel member name: p450-cyp2c19 Compounds with AC50 equal or less than 10 uM are considered active. Type of data set: functional.
Cytochrome P450 2C19, sequence (P33261 whole entry): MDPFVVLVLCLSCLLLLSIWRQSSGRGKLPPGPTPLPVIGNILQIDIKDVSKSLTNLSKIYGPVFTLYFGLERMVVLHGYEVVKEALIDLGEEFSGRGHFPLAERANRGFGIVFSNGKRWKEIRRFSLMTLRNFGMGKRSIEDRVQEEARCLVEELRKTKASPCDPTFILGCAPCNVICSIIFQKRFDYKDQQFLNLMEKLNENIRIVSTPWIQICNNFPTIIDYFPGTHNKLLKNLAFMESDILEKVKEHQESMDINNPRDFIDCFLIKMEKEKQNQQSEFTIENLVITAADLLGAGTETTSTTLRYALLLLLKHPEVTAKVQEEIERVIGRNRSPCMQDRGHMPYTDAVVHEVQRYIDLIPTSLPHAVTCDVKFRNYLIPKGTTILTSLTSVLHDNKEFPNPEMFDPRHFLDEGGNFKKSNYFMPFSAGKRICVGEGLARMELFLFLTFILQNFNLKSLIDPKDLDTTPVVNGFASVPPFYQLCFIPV
For another data set, the target named is Cytochrome P450 2D6 (Homo sapiens, UniProt P10635). In words: qHTS Assay for Inhibitors and Substrates of Cytochrome P450 2D6. [Related pubchem assays: 410 ]. Type of data set: ADME. Conditions: human; read-out: Potency.
Data set [11] deals with T6, Zinc finger protein mex-5 (Caenorhabditis elegans, UniProt Q9XUB2).
T6 sequence (Q9XUB2 whole entry): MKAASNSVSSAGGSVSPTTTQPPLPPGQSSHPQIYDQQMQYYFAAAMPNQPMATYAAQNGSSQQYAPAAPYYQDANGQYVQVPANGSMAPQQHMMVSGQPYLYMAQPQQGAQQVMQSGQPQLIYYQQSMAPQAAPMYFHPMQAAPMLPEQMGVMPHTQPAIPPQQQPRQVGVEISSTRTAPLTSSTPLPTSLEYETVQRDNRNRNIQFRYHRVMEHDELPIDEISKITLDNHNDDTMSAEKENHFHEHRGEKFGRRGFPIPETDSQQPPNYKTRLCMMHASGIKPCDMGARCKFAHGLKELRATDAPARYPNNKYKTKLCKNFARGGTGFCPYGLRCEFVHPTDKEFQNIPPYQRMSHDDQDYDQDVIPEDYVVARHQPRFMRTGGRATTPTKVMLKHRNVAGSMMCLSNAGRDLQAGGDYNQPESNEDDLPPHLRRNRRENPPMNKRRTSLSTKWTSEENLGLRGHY
In words: potency of MEX-5 RNA-binding blockers – biochemical, C. elegans, fluorescence polarization, dose response (AID 1960).

Data set [12] has as its target T7, RNA-binding protein pos-1 (Caenorhabditis elegans, UniProt G5EF15).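 Also: purified POS-1 fused to maltose binding protein made in E. coli; potency of compounds blocking POS-1 binding to fluorescent RNA.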
T7 sequence (G5EF15 whole entry): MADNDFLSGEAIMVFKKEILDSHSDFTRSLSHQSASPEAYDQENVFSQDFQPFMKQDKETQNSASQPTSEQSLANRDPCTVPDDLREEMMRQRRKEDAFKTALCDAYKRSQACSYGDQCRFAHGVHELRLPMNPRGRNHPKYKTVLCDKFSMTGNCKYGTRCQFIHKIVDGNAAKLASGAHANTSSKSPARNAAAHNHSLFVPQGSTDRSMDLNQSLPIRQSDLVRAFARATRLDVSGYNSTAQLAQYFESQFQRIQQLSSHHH
As to the kind of experiment: disruptors of C. elegans POS-1 RNA interaction – biochemical, fluorescence polarization, dose response (AID 1964). (In general: Fluorescence polarisation rises when a labelled molecule tumbles more slowly, as on binding a larger partner.)

In another data set the target is Cytochrome P450 2C9 (Homo sapiens, UniProt P11712). Conditions: read-out: Potency.
Cytochrome P450 2C9, sequence (P11712 whole entry): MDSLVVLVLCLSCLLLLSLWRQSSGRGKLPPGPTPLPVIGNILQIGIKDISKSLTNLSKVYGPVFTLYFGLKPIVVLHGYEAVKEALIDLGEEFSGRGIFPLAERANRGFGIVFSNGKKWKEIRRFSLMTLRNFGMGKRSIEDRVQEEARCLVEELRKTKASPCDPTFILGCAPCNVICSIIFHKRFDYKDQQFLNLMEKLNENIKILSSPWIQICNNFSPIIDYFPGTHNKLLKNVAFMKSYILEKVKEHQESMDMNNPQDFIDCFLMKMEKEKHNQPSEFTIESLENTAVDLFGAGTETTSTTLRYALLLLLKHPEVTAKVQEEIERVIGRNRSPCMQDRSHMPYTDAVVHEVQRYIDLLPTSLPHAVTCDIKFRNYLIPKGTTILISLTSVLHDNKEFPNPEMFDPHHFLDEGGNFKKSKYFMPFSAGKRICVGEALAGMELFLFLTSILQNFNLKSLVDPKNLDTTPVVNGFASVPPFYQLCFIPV

Mothers against decapentaplegic homolog 3, sequence (P84022 whole entry): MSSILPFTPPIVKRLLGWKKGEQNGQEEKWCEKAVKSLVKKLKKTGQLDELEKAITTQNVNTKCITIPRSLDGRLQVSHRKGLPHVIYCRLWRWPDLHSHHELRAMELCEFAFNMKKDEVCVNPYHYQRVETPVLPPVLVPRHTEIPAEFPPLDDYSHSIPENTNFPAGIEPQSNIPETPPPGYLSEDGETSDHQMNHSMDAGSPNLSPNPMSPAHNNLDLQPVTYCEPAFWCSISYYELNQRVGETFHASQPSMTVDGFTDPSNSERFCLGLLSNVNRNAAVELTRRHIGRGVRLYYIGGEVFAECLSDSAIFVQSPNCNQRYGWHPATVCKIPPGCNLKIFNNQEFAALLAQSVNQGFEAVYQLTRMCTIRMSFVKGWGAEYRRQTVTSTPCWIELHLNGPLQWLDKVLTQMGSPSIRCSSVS

In general, EC50 refers to the concentration that produces a half-maximal response. With `COc1cc(C)c(Cl)cc1S(=O)(=O)n1cnc(C)c1`, the EC50 in data set [1] is > 50 µM (active).

One may read the IC50 as the midpoint of a concentration-inhibition curve. `C=CCN1C(=O)/C(=C/c2ccc(OC(C)=O)c(OCC)c2[N+](=O)[O-])SC1=S`: the EC50 was 18.4 µM (not active) in [2]; > 150 µM (not active) on Streptokinase A; 2.63 µM (active) with Streptococcus; > 11.8 µM (not active) in the data set on HEK293; 1.32 µM (active) in data set [5]; 14.8 µM (not active) in data set [6]. Also, the IC50 at Fatty acid synthase [3] is 2.87 µM (active); on Fatty acid synthase [4], 5.92 µM (active). In addition, the AC50 on Paired box protein Pax-8 is 5.91 µM (active).

One may read the CC50 as the concentration giving 50% cytotoxicity. Regarding `CCOc1ccc(CNc2ccc3c(c2)nc(C)n3C)cc1`, in the data set on Vero, the CC50 is > 40 µM (active). Also, the IC50 in data set [7] is 26.6 µM (active).

For the molecule `COc1ccc(C(c2cc3c(cc2O)OCO3)N2CCN(C(c3ccc(OC)cc3)c3cc4c(cc3O)OCO4)CC2)cc1` (stereo unspecified), the IC50 in data set [8] is 36.1 µM (not active).

For the molecule `Cc1cccc(/C=N/n2c(S)nnc2-c2ccco2)c1`, the EC50 in data set [9] and in [10] was > 55.7 µM (not active) throughout.

As for `C=CC1=C(C)c2cc3[nH]c(cc4nc(cc5[nH]c(cc1n2)c(C)c5CCC(=O)O)C(CCC(=O)O)=C4C)c(C)c3C=C` [PROTOPORPHYRIN], the CC50 in the data set with Vero is 19.7 µM (active). For the same molecule, the values for the AC50 result at Cytochrome P450 2C19, on Cytochrome P450 2D6 and on Cytochrome P450 2C9 were “inconclusive”, 25.1 µM (inconclusive) and 6.31 µM (inconclusive), respectively. Also, the EC50 was 8.89 µM (active) in data set [11] and 9.95 µM (active) in data set [12].

The values are drawn from ChEMBL document CHEMBL1201862, “PubChem BioAssay data set” (2004).
